# ChEMBL document CHEMBL5113380, “Functionalized quinoxalinones as privileged structures with broad-ranging pharmacological activities” (Eur J Med Chem, 2022)
# Key:
# [1] = target: Trypsin (Homo sapiens, UniProt P07477+P07478+P35030); assay: Inhibition of trypsin (unknown origin); type: protein assay
# [2] = target: Glutamate receptor 2 (Homo sapiens, UniProt P42262); assay: Binding affinity to GluA2 receptor (unknown origin)
# [3] = target: Glutamate receptor ionotropic, kainate 2 (Homo sapiens, UniProt Q13002); assay: Binding affinity to GluK2 receptor (unknown origin)
# [4] = target: T1, Glutamate receptor ionotropic AMPA (Homo sapiens, UniProt P42261+P42262+P42263+P48058); assay: Binding affinity to AMPA receptor (unknown origin); type: protein-complex assay
# [5] = target: T2, Glutamate receptor ionotropic, kainate 5 (Homo sapiens, UniProt Q16478); assay: Binding affinity to GluK5 receptor (unknown origin)
# T2 sequence (Q16478 whole entry): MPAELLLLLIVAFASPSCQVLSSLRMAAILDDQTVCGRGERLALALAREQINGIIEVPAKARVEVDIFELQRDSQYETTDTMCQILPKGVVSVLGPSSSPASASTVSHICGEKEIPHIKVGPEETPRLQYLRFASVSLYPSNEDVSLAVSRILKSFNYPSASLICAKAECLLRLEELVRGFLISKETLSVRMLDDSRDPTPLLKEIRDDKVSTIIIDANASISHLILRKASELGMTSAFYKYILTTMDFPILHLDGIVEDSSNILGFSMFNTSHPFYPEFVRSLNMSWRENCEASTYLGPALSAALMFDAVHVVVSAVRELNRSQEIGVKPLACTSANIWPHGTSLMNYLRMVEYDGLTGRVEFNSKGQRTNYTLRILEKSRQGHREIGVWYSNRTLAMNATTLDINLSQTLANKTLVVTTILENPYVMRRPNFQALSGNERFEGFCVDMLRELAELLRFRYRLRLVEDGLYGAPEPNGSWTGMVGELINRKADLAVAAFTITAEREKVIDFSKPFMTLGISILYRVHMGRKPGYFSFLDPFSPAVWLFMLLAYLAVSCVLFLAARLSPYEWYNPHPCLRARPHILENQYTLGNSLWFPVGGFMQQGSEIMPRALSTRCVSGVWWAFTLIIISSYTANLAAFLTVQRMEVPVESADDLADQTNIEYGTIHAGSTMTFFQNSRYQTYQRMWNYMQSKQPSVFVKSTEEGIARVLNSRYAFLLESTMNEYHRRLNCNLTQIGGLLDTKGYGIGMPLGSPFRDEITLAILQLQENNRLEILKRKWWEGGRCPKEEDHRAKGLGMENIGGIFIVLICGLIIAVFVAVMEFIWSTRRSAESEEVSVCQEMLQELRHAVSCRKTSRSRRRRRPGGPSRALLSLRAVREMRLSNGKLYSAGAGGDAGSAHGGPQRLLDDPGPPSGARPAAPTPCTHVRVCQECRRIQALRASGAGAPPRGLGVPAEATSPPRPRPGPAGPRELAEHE
# [6] = target: Glutamate receptor ionotropic, kainate 1 (Homo sapiens, UniProt P39086); assay: Binding affinity to GluK1 receptor (unknown origin)
# [7] = target: Glutamate [NMDA] receptor; assay: Antagonist activity at NMDA receptor (unknown origin) assessed as NMDA-induced depolarizations; type: protein-complex assay, Homo sapiens
# [8] = target: T1, Glutamate receptor ionotropic AMPA; assay: Displacement of [3H]kainic acid from AMPA receptor (unknown origin); type: protein-complex assay
# [9] = target: T1, Glutamate receptor ionotropic AMPA; assay: Displacement of [3H]AMPA from AMPA receptor (unknown origin); type: protein-complex assay
# [10] = target: T1, Glutamate receptor ionotropic AMPA; assay: Antagonist activity at AMPA receptor (unknown origin) assessed as AMPA-induced depolarizations; type: protein-complex assay
# [11] = Displacement of [3H]glycine from AMPA receptor (unknown origin); type: protein-complex assay, Homo sapiens
# [12] = system: Staphylococcus aureus; assay: Antibacterial activity against Staphylococcus aureus; type: functional
# [13] = Cytotoxicity against mock-infected human MT4 cells; type: toxicity, cell-based
# [14] = target: Voltage-gated inwardly rectifying potassium channel KCNH2 (Homo sapiens, UniProt Q12809); assay: Inhibition of hERG; type: toxicity
# [15] = system: Klebsiella pneumoniae; assay: Antibacterial activity against Klebsiella pneumoniae; type: functional
# [16] = system: Escherichia coli; assay: Antibacterial activity against Escherichia coli; type: functional
# [17] = system: Pseudomonas aeruginosa; assay: Antibacterial activity against Pseudomonas aeruginosa; type: functional
# [18] = Lipophilicity, logD of compound; type: physicochemical; conditions: octanol/water
# [19] = Inhibition of Escherichia coli topoisomerase 4
# [20] = Dissociation constant, pKa of the compound; type: physicochemical
# [21] = system: Escherichia coli; assay: Antibacterial activity against Escherichia coli assessed as diameter zone of inhibition; type: functional
# [22] = system: Staphylococcus aureus; assay: Antibacterial activity against Staphylococcus aureus assessed as diameter zone of inhibition; type: functional
# [23] = system: Streptococcus pneumoniae; assay: Antibacterial activity against Streptococcus pneumoniae assessed as diameter zone of inhibition; type: functional
# [24] = system: Salmonella typhimurium; assay: Antibacterial activity against Salmonella typhimurium assessed as diameter zone of inhibition; type: functional, Salmonella enterica subsp. enterica serovar Typhimurium
# [25] = system: Pseudomonas aeruginosa; assay: Antibacterial activity against Pseudomonas aeruginosa assessed as diameter zone of inhibition; type: functional
# [26] = system: Bacillus subtilis; assay: Antibacterial activity against Bacillus subtilis assessed as diameter zone of inhibition; type: functional
# [27] = target: Glutamate [NMDA] receptor; assay: Displacement of [3H]MK-801 from NMDA receptor (unknown origin); type: protein-complex assay, Homo sapiens
# [28] = system: Mus musculus; assay: Antiinflammatory activity against mouse assessed as reduction in carragenan-induced paw edema at 25 mg/kg,po treated 1 hr prior to carrageenan challenge; type: functional; parameters: scale not given: the % may be the effect or the level left
# [29] = system: Streptococcus pneumoniae; assay: Antibacterial activity against Streptococcus pneumoniae; type: functional
# [30] = system: Escherichia coli; assay: Antibacterial activity against Escherichia coli W3110; type: functional
# [31] = system: Toxoplasma gondii; assay: Anti-tachyzoite activity against Toxoplasma gondii at 100 uM; type: functional, type III
# Glutamate receptor 2, sequence (P42262 whole entry): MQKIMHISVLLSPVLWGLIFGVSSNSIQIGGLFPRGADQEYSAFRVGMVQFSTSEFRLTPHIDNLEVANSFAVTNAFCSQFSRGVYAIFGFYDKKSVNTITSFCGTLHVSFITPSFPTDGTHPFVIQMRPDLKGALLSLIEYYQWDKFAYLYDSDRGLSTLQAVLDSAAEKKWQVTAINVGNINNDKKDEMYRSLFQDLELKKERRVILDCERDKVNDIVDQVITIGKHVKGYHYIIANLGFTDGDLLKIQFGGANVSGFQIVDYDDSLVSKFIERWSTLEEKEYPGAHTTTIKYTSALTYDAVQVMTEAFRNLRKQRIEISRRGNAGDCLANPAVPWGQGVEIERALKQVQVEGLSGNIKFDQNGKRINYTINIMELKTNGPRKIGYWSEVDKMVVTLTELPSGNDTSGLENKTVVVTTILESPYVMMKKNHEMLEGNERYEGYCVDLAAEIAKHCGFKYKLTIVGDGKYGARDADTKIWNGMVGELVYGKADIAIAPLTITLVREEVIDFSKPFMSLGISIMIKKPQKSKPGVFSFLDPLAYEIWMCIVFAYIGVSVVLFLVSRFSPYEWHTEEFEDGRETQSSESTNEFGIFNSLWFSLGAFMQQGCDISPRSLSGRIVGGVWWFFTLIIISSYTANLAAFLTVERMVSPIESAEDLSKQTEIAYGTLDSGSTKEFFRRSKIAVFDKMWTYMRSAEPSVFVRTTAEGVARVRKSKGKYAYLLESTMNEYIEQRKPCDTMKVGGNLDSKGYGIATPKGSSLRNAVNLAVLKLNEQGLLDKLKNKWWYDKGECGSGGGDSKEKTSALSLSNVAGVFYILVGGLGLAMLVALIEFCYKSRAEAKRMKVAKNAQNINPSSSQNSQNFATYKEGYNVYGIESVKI
# Glutamate receptor ionotropic, kainate 2, sequence (Q13002 whole entry): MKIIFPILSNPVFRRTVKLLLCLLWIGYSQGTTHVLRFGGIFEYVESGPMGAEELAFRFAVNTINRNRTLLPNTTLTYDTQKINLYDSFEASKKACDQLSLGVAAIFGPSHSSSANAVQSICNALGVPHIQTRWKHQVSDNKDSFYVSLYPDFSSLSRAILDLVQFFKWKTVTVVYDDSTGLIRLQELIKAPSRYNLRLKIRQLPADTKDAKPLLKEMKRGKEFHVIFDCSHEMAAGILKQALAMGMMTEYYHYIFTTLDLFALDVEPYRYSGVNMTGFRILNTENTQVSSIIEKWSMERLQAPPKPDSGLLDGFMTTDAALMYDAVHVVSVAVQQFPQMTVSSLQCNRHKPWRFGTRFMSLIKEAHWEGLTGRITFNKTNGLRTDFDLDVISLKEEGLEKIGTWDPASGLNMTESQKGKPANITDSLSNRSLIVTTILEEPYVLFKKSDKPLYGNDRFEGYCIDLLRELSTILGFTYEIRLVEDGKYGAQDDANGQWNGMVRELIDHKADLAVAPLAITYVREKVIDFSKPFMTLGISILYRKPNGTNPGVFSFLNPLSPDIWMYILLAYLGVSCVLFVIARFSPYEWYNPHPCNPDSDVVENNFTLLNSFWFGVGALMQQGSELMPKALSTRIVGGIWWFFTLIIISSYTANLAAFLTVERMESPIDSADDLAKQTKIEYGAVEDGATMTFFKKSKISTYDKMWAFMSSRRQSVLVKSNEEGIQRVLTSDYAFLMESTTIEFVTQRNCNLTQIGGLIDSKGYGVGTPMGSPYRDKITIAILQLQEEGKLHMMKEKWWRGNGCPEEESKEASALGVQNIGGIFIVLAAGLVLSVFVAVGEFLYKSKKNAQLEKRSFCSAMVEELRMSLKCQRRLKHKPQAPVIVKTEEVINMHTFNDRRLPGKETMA
# Glutamate receptor ionotropic, kainate 1, sequence (P39086 whole entry): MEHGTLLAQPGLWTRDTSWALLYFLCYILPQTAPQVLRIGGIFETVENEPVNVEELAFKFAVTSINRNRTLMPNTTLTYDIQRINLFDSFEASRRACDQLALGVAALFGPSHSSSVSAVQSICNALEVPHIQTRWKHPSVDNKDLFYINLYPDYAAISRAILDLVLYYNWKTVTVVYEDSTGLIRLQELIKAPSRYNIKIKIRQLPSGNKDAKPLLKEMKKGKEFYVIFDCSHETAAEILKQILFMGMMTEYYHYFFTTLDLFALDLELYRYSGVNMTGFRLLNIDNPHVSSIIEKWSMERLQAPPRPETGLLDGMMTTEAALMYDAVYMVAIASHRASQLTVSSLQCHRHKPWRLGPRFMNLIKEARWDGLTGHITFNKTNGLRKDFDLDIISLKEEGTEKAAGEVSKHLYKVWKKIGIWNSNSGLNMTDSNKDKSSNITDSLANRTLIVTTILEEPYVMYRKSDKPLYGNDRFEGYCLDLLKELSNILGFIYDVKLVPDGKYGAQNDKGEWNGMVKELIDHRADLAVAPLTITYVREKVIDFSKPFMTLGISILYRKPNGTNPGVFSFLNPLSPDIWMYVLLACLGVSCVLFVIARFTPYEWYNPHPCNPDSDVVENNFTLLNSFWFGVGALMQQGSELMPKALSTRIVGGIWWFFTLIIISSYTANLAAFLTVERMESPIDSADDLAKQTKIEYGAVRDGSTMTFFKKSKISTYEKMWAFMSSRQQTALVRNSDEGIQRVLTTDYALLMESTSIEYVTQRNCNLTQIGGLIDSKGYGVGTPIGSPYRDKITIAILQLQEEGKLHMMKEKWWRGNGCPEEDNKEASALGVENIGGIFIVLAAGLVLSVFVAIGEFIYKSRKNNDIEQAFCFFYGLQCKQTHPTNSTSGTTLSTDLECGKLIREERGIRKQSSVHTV
# Voltage-gated inwardly rectifying potassium channel KCNH2, sequence (Q12809 whole entry): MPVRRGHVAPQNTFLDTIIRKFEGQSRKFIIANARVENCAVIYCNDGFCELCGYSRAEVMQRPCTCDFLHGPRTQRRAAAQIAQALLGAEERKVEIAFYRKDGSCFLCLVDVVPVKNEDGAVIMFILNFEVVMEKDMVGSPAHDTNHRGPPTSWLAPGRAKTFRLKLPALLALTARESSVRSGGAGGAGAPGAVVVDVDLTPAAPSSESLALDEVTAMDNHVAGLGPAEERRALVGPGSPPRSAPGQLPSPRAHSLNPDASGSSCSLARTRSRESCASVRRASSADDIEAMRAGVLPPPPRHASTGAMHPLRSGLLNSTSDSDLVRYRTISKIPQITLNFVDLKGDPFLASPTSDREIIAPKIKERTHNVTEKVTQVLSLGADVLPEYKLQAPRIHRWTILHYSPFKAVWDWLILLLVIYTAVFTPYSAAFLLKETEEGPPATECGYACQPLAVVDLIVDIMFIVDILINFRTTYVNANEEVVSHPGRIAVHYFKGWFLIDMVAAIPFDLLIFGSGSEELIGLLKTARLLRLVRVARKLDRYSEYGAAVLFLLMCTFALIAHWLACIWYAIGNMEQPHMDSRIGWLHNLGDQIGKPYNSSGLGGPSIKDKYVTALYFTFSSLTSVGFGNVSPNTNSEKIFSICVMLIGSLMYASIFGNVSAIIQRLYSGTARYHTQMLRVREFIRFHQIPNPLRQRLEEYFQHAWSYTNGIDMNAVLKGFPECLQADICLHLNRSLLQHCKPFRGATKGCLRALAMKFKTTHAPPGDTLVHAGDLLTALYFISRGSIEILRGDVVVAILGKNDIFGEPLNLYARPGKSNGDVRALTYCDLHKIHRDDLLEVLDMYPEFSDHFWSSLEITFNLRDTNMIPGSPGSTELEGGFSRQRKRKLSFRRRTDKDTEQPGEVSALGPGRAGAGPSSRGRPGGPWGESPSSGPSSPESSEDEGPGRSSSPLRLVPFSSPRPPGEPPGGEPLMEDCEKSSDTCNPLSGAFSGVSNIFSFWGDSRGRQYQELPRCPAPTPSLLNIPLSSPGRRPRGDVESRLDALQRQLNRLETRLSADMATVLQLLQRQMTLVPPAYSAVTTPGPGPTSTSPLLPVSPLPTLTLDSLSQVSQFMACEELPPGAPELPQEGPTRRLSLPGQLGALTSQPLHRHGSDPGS
smiles,measurement,setting,value
Cn1c(=O)c(Cc2ccc(C(=N)N)cc2)nc2cc(C3(C(=O)N4CCCC4C(=O)NCC(=O)O)CC3)ccc21 (stereo unspecified),IC50,[1],2.4 µM
O=C(Nn1c(=O)c(=O)[nH]c2cc(C(F)(F)F)c(F)cc21)c1ccccc1O,Ki,[2],4.12 µM
same,Ki,[3],0.908 µM
same,Ki,[4],0.96 µM
same,Ki,[5],26.4 µM
same,Ki,[6],1.12 µM
O=C(O)c1nc2c(=O)[nH]c3cc(Cl)c(-n4cnnc4)cc3n2n1 [TQX-173],IC50,[7],46 µM
same,IC50,[8],11.6 µM
same,Ki,[9],0.14 µM
same,IC50,[10],2.3 µM
same,Ki,[11],33.5 µM
O=c1[nH]c2ccc(Cl)c(Cl)c2nc1C(F)(F)F,MBC,[12],200 µM
same,MIC,[12],33 µM
same,CC50,[13],108 µM
N[C@H](Cn1c(=O)cnc2ccc(F)cc21)[C@H]1CC[C@H](NCc2ncc3c(n2)NC(=O)CO3)CC1,IC50,[14],> 333 µM
same,MIC90,[15],16 µg/mL
same,MIC,[16],< 0.06 µg/mL
same,MIC90,[16],1 µg/mL
same,MIC,[17],0.5 µg/mL
same,MIC90,[17],4 µg/mL
same,MIC,[12],1 µg/mL
same,logD,[18],-0.32
same,IC50,[19],0.003 µM
same,pKa,[20],7.28
O=c1[nH]c2ccc(Cl)c(Cl)c2nc1CBr,CC50,[13],24 µM
COc1cnc2ccc(=O)n(C[C@@H](N)[C@H]3CC[C@H](NCc4ccc5c(n4)NC(=O)CO5)CC3)c2c1,IC50,[14],> 333 µM
same,MIC,[15],8 µg/mL
same,MIC,[16],0.5 µg/mL
same,MIC90,[16],0.5 µg/mL
same,MIC,[17],1 µg/mL
same,MIC90,[17],4 µg/mL
same,MIC,[12],8 µg/mL
same,logD,[18],-0.86
same,IC50,[19],0.002 µM
same,pKa,[20],7.66
Cc1cccc(C)c1NCC(=O)N1CC(=O)Nc2ccccc21,diameter of the inhibition zone (DIZ),[21],10 mm
same,diameter of the inhibition zone (DIZ),[22],8 mm
same,diameter of the inhibition zone (DIZ),[23],8 mm
same,diameter of the inhibition zone (DIZ),[24],9 mm
same,diameter of the inhibition zone (DIZ),[25],11 mm
same,diameter of the inhibition zone (DIZ),[26],11 mm
O=Cc1ccn(-c2cc3c(cc2Cl)nc(O)c2nc(C(=O)O)nn23)c1,IC50,[27],43 µM
same,IC50,[7],23 µM
same,IC50,[8],8.9 µM
same,Ki,[9],0.53 µM
same,IC50,[10],1.2 µM
same,Ki,[11],28 µM
O=C(O)c1nc2c(O)nc3cc(Cl)c(-n4cccc4)cc3n2n1,IC50,[27],11.7 µM
same,IC50,[7],52 µM
same,IC50,[8],36 µM
same,Ki,[9],0.86 µM
same,IC50,[10],3 µM
same,Ki,[11],0.86 µM
O=C1CN(C(=O)CNc2cccc(Cl)c2)c2ccccc2N1,diameter of the inhibition zone (DIZ),[21],9 mm
same,diameter of the inhibition zone (DIZ),[24],9 mm
O=C1CN(C(=O)CCl)c2ccccc2N1,diameter of the inhibition zone (DIZ),[23],16 mm
same,diameter of the inhibition zone (DIZ),[25],15 mm
O=C(Nn1c(=O)c(=O)[nH]c2cc(C#CCO)ccc21)c1ccccc1,Ki,[2],37.4 µM
same,Ki,[3],9.78 µM
same,Ki,[5],100 µM
Cn1c(=O)c(Cc2ccc(C(=N)N)cc2)nc2cc(C3(N(C(=O)CC(=O)O)C4CCCC4)CC3)ccc21,IC50,[1],0.55 µM
CC(C)Cc1ccc(C(C)C(=O)O)cc1 (stereo unspecified) [IBUPROFEN],Activity,[28],39.3%
Cc1ccccc1NCC(=O)N1CC(=O)Nc2ccccc21,diameter of the inhibition zone (DIZ),[21],15 mm
same,diameter of the inhibition zone (DIZ),[22],15 mm
same,diameter of the inhibition zone (DIZ),[23],10 mm
same,diameter of the inhibition zone (DIZ),[24],9 mm
same,diameter of the inhibition zone (DIZ),[25],12 mm
same,diameter of the inhibition zone (DIZ),[26],15 mm
COc1ccc2ncc(=O)n(CCN3CCC(NCc4ccc5c(n4)NC(=O)CO5)CC3)c2c1,MIC,[29],0.08 µg/mL
same,MIC,[17],1 µg/mL
same,MIC,[30],0.13 µg/mL
same,MIC,[12],0.03 µg/mL
same,logD,[18],0.6
same,IC50,[19],0.0022 µM
same,pKa,[20],5.56
COc1ccc2[nH]c(=O)c(CBr)nc2c1Cl,CC50,[13],21 µM
O=C(Nn1c(=O)c(=O)[nH]c2cc(C#Cc3ccccc3)ccc21)c1ccccc1,Ki,[2],23.6 µM
same,Ki,[3],100 µM
same,Ki,[5],> 100 µM
same,Ki,[6],> 100 µM
O=C1CN(CCCCCN2CCCCC2)c2ccc([N+](=O)[O-])cc2N1,Activity,[31],92%
